# Source: patent US20260125645A1, “METHODS AND PHARMACOLOGICAL AGENTS FOR INCREASING EXPANSION, ENGRAFTMENT OR IMMUNE OUTPUT OF HUMAN HEMATOPOIETIC STEM CELLS IN TRANSPLANTATION AND DISEASE SETTINGS” (VALORISATION HSJ, LIMITED PARTNERSHIP, priority 2022, published 2026)
# What was measured:
# [1] = system: cord-blood CD34^+ cells (HSC); test: Human immune engraftment (% hCD45) in irradiated NSG mice injected with the progeny of ex vivo cultured cord-blood CD34+ cells
# Description: The progeny of 7,500 cord-blood CD34+ cells was cultured under modified air-liquid interface (ALI) conditions for 10 days and injected in irradiated adult NSG mice. Cells were cultured in cytokine-containing (SCF, TPO, FLT-3L) serum-free media (StemSpan™ SFEM, LDL) containing UM729 (40 nM) with or without the addition of aryl hydrocarbon receptor (AhR) receptor antagonist CH-223191 (1 μM). Human immune reconstitution, expressed by the percentage of human CD45 (hCD45) over total CD45, was monitored in peripheral blood after 7, 14 and 25 weeks post-transplantation by flow cytometry. Mean percentage of human CD45 cell engraftment for 2 mice per condition is shown. […]
# Since the ultimate aim is to improve the expansion of engraftable human HSC, the validation methods largely rely on the measurement of immune reconstitution, both short-term and long-term, after transplantation in a humanized mice model. Briefly, NSG mice (Jackson Laboratories, strain 005557) were sublethally irradiated at 2Gy 4 to 24 hours prior to CD34^+ cells intravenous (IV) injection. All harvested cells from 1 culture well were injected into one mouse. Wells from all conditions started with equal numbers of CD34^+ cells from the same source/donor. Therefore, all the progeny of a culture setting was injected into mice. Peripheral blood of humanized mice was harvested every 5 weeks, and human engraftment and immune reconstitution were analyzed by flow cytometry. The earliest point where human engraftment in mice was measured was after 5 weeks and the latest after 35 weeks. The impact of the ALI culture system on HSC engraftment capacity was assessed using base media purchased from STEMCELL Technologies (StemSpan SFEM). A dramatic effect of the ALI methodology on the engraftment of cord-blood HSC was observed relative to the published manual fed-batch culture methodology^4, which includes SCF, TPO, FLT3L and UM171 (FIG. 4).
# Cord-blood CD34^+ cells = test: Ex vivo expansion of the CD34+ population from cord-blood CD34+ cells, counted by flow cytometry; assay type: cell-based, human; details: for expansion in CD34^+ population: UM171 40 nM, 10 days, SCF/TPO/FLT-3L StemSpan SFEM II
# Description: Cord-blood CD34^+ cells were cultured under manual fed-batch (FB) or modified air-liquid interface (ALI) conditions for 10 days. Cells were cultured in cytokine-containing (SCF, TPO, FLT-3L) serum-free media (StemSpan™ SFEM II) where UM171 (40 nM) was added. CD34^+ cells total number was assessed by flow cytometry using […] beads (BD).
# The progeny of 7,500 cord-blood CD34^+ cells was cultured under manual fed-batch (FB) conditions for 6 days and injected in irradiated adult NSG mice. Cells were cultured in cytokine-containing (SCF, TPO, FLT-3L) serum-free media (StemSpan SFEM II) where UM729 (500 nM) or a HTR1F-specific agonist LY573144 (250 nM final concentration) was added. The progeny of an equal number of CD34^+ cells cultured in the same conditions but without UM729 or LY573144 from the same source was used to determine baseline expansion (threshold indicated by the dotted line) and engraftment. Expansion fold, compared to untreated condition, of the CD34^+ population after 6 days of ex vivo culture is shown in the left panel. Human immune reconstitution was monitored in peripheral blood (middle panel) and bone marrow (right panel) at week 25 post-transplantation as described above. Mean percentage of human CD45 cell engraftment for 2 mice per condition is shown.
# An experimental setup was designed where oxygen exchange in the media would be maximized, while adopting the principles of fed-batch cultures (FB) in which medium is renewed and in sufficient quantity to provide nutrients while diluting cell waste. […] In doing so, the maximum of cells was placed directly at the air-liquid interface so that gas exchanges are more efficient. Briefly, HSC were enriched based on CD34 expression marker, from cord-blood units using the Miltenyi CD34 MicroBead Kit UltraPure according to manufacturer's instruction. Purity was determined by flow cytometry using monoclonal CD34-PE antibodies (Clone 581, BD Pharmingen, 555822). […]
# Using this culture method, the expansion of the stem cell population (defined as CD34^+ cells) in the culture wells after 10 days was first assessed. […]
# [2] = system: human CB CD34+ (HSC engraftment); test: In vivo administration of HTR1F agonist to NSG mice humanized with uncultured cord-blood CD34+ cells; human chimerism by flow cytometry; details: 0.3 mg (10 mg/kg) intraperitoneally at 6 h, 24 h, 48 h
# Description: 38,000 human CB CD34+ were injected intravenously into irradiated NSG mice (n=8, 16 hrs after irradiation). Starting from 6 hours post-transplantation, half of the mice (n=4) received, by intraperitoneal injection, 0.3 mg of Lasmiditan diluted in 0.02% DMSO in PBS (drug), for a total of 4 doses in regular intervals (6 h, 24 h, 48 h and 72 h) after human HSC injection. The second half (control) received I.P. injection of vehicle (0.02% DMSO in PBS) (n=4; vehicle). Human chimerism was assessed on peripheral blood until 19 weeks post-transplantation as described above, after which time mice were sacrificed and spleen and bone marrow were analyzed. SEM are depicted.
# Lasmiditan, purchased from AdooQ Bioscience (product number A14198), was dissolved in DMSO and ethanol solution. […] Purity and viability were assessed by flow cytometry using the following staining: CD34-APC (Biolegend 343510), CD19-PE (Biolegend, 302208), CD3-PE-Cy7 (Biolegend, 344816), CD45-APC-Cy7 (Biolegend, 368516), 7-AAD (BD Biosciences, 559925), 1 μL AnnV-FITC (Biolegend, 640906). […] The dose was determined based on previous work with LY344864 (used ex vivo above, FIG. 10) in kidney injury recovery studies^16 and is consistent with the dosage of Reyvow® (Lasmiditan) for the treatment of migraine. […]
# [3] = progeny of FB culture with LY573144 250 nM for 6 days, 25 weeks after injection
compound,measurement,setting,value
Cc1ccccc1N=Nc1ccc(NC(=O)c2ccnn2C)c(C)c1 [CH-223191],engraftment capacity of cultured HSC (% hCD45 in peripheral blood),"[1]; CH-223191 1 μM added to ALI culture containing UM729, 10 days, blood at 7, 14 and 25 weeks, vs without CH-223191",did not further increase the engraftment capacity
"CN(C)[C@@H]1CCc2[nH]c3ccc(NC(=O)c4ccc(F)cc4)cc3c2C1.Cl [LY344864, N-[(3R)-3-(Dimethylamino)-2,3,4,9-tetrahydro-1H-carbazol-6-yl]-4-fluorobenzamide hydrochloride]",peripheral blood engraftment (% hCD45),"[1]; LY344864 500 nM in StemSpan SFEM II with SCF/TPO/FLT-3L, 10 days, specifically ALI culture, vs media alone",greatly improved the peripheral blood engraftment
"CN1CCC(C(=O)c2cccc(NC(=O)c3c(F)cc(F)cc3F)n2)CC1 [LY573144, 2,4,6-Trifluoro-N-[6-[(1-methyl-4-piperidinyl)carbonyl]-2-pyridinyl]benzamide]",expansion of the CD34^+ population compared to untreated condition,"Cord-blood CD34^+ cells; LY573144 250 nM, FB culture, 6 days",two-fold
same,percentage of hCD45^+ cells in the blood,[1]; [3],higher percentages
same,percentage of hCD45^+ cells in the bone marrow,[1]; [3],higher percentages
same,presence of human immune cells (hCD45^+) in tissues of treated animals,"[2]; 72 h, analysed up to 19 weeks","found in blood, spleen and bone marrow"
same,reconstitution of the immune compartment (human chimerism),"[2]; 72 h after 38,000 CD34+ cells, followed to 19 weeks, vs vehicle",more robust reconstitution of the immune compartment
"N[C@@H](Cc1cc(I)c(Oc2ccc(O)c(I)c2)c(I)c1)C(=O)O [T3, triiodothyronine]",engraftment of HSC in humanized mice (% hCD45+ lymphocytes in peripheral blood),"[1]; T3 45 ng/mL in SCF/TPO/FLT3L StemSpan SFEM containing UM171, FB culture 10 days, vs UM171 alone or with CH-223191",increased the engraftment of HSC
Cn1nnc(-c2ccc3c(c2)[nH]c2nc(Cc4ccccc4)nc(NC4CCC(N)CC4)c23)n1 (stereo not shown) [UM171],expansion in CD34^+ population,Cord-blood CD34^+ cells; ALI culture,~55 fold
same,expansion in CD34^+ population,Cord-blood CD34^+ cells; fed-batch (FB) culture,~55 fold
